Values of other authors as cited in US20260229307A1, “CLEAVED NEOEPITOPES” (IOGENETICS, LLC, priority 2023, published 2026).

Legend:
[1] = human muscular dystrophy trial
[2] = relative to E64

SMILES: CCOC(=O)[C@H]1O[C@@H]1C(=O)N[C@@H](CC(C)C)C(=O)NCCC(C)C [aloxistatin]
- safety in humans [1]: demonstrate the safety
- cell permeability and adsorption [2]: improved cell permeability and adsorption
